Patent publication US20230391772A1, “METHODS AND COMPOSITIONS FOR TARGETED PROTEIN DEGRADATION” (Ranok Therapeutics (Hangzhou) Co. Ltd., priority 2020, published 2023)

What was measured:
[1] = target: T1, HSP90a protein (Homo sapiens, UniProt P07900); test: HSP90α-binding fluorescent polarization (FP) assay, BODIPY-labeled RNK04010 probe; conditions: FP competition with RNK04010 (BODIPY-labeled), 5 nM, 300 min at 25° C.
T1 construct: purchased BPS Bioscience 50298
Summary of the method: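 Compound dilutions (20 μM to 5.2 nM, 2.5-fold) are combined with 5 nM final labeled probe, and HSP90a N-terminal protein is added last. Plates are shaken briefly and held at 25° C for 120 min (FITC-geldanamycin) or 300 min (BODIPY-RNK04010), then FP is measured.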

[2] = test system: MIA PaCa-2 human pancreatic carcinoma; test: MIA PaCa-2 CCK-8 proliferation assay; format: cell-based; conditions: Homo sapiens, MIA PaCa-2, 72 h, MIA PaCa-2 cells
Summary of the method: (§1)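 CCK-8 absorbance readout; % inhibition = 100 − (compound − blank)/(DMSO − blank) × 100, blank = medium + DMSO, no cells. Dose range 20 μM down to 1.02 nM, 3-fold steps. KRAS(G12C) copy number: MIA PaCa-2 2; NCI-H358 1; NCI-H23 1.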

[3] = test system: NCI-H23 human non-small cell lung cancer; test: NCI-H23 CCK-8 proliferation assay; format: cell-based; conditions: NCI-H23 cells, 72 hr
Summary of the method: as §1

[4] = target: T2, KRAS(G12C) (Homo sapiens, UniProt P01116, G12C); test: KRAS(G12C)/SOS1 homogeneous time-resolved fluorescence (HTRF) assay; design: purchased Cisbio 63ADK000CB16PEG; conditions: absence of GTP, 4° C. for 3 hr, read-out: KRAS (G12C) binding
Summary of the method: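 Three-hour incubation at 4 °C of 3-fold compound dilutions (lowest 1.02 nM) with KRAS(G12C), SOS1 and detection reagents, GTP absent. Disruption of the KRAS(G12C)/SOS1 complex detected by time-resolved fluorescence.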

[5] = test system: NCI-H358 human non-small cell lung cancer; test: NCI-H358 CCK-8 proliferation assay; format: cell-based; conditions: NCI-H358 cells, 72 hr
Summary of the method: as §1

[6] = target: T2, KRAS(G12C); test: KRAS(G12C) Western blot protein degradation assay in MIA PaCa-2 cells; format: cell-based; design: host or cells: LU65A; conditions: 48 hr
Procedure: The following cancer cell lines were employed: BT-474 human breast carcinoma (ATCC, #HTB-20); MIA PaCa-2 human pancreatic carcinoma [2 copies KRAS(G12C)](ATCC, #CRL-1420); NCI-H23 human non-small cell lung cancer [1 copy KRAS(G12C)](ATCC, #CRL-5800); NCI-H358 human non-small cell lung cancer [1 copy KRAS(G12C)](ATCC, #CRL-5807); LU65A human lung carcinoma (Pharmaron, Beijing, China). Cell lines were cultured essentially according to ATCC and Pharmaron recommendations.
KRAS(G12C) Western Blot Protein Degradation Assay
The MIA PaCa-2 human pancreatic carcinoma cell line and LU65A human lung cancer cell line, which expresses KRAS(G12C), were seeded in 6- or 12-well tissue culture plates, and after 1 hr, test compounds were added at various concentrations and incubated at 37° C./5% CO2 for 48 hr (MIA Paca-2) and 6 hr (LU65A) respectively. Cells were then washed with cold PBS, aspirated and cold RIPA buffer containing a protease/phosphatase inhibitor cocktail was added to lyse cells. After centrifugation, the total protein concentrations of cell lysates were determined using the BCA protein assay. Samples were normalized for equivalent protein concentrations, 5×SDS-PAGE loading buffer added and denatured at 100° C. for 10 min. 20 μl of each sample/well was loaded on a SDS-PAGE gel and electrophoresed for 20 min at 80 V, then 120 V for 1.5 hr. Gels were then electroblotted to nitrocellulose membranes using a wet-transfer method at 250 mA for 2.5 hr. Membranes were incubated with blocking buffer for 1 hr and washed 3 times with TBST for 5 min. Membranes were then incubated with anti-KRAS (Sigma-Aldrich, #SAB1404011) and anti-β-Actin monoclonal antibodies (Cell Signaling Technology, #3700) diluted in blocking buffer at 4° C. overnight per the manufacturer's recommendations. After washing 3 times, blots were incubated with appropriately labeled secondary antibodies for 1 hr at room temperature and washed again. Fluorescence imaging and quantitation was performed using a LI-COR Odyssey. Results was analyzed using GraphPad Prism 7 software. Compound degradation of was determined by the following equation and DC50 values (the concentration at which 50% of the maximal degradation of KRAS occurs) calculated using GraphPad Prism 7 software:
% Inhibition=100−(D−B)/(S−B)*100%. • S: Fluorescence intensity of cells with antibody • D: Fluorescence intensity of compound-treated cells with antibody • B: Fluorescence intensity of cells without antibody

T2 sequence (P01116 1-188 isoform P01116-2 G12C): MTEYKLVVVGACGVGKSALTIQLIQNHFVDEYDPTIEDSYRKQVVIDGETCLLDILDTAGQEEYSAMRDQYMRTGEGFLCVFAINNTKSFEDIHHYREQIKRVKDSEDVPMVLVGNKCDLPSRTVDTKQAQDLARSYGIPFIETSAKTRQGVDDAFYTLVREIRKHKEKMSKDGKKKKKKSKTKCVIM

SMILES | IC50 [1] | EC50 [2] | EC50 [3] | IC50 [4] | EC50 [5] | inhibition at 0.1562 µM ([6]; 156.2 nM) | inhibition at 0.3125 µM ([6]; 312.5 nM) | inhibition at 0.625 µM ([6]; 625 nM) | inhibition at 1.25 µM ([6]; 1250 nM) | inhibition at 2.5 µM ([6]; 2500 nM) | inhibition at 5 µM ([6]; 5000 nM) | inhibition at 10 µM ([6]; 10,000 nM)
C=CC(=O)N1CCN(c2nc(NCCC(=O)N3CCC(CN4CCN(Cc5ccc(-n6c(O)nnc6-c6cc(C(C)C)c(O)cc6O)cc5)CC4)CC3)nc3c2CCN(c2cc(O)cc4ccccc24)C3)CC1 [Compound 14, 1-(4-(2-((3-(4-((4-(4-(3-(2,4-dihydroxy-5-isopropylphenyl)-5-hydroxy-4H-1,2,4-triazol-4-yl)benzyl)piperazin-1-yl)methyl)piperidin-1-yl)-3-oxopropyl)amino)-7-(3-hydroxynaphthalen-1-yl)-5,6,7,8-tetrahydropyrido[3,4-d]pyrimidin-4-yl)piperazin-1-yl)prop-2-en-1-one, trifluoroacetic acid] | < 0.1 µM | > 1 µM | > 1 µM | > 1 µM | 0.1 to 1 µM |  |  |  |  |  |  | 
C=CC(=O)N1CCN(c2nc(NCCC(=O)N3CCC(Cc4ccc(CN(C)Cc5ccc(-n6c(C(=O)NCC(F)(F)F)nnc6-c6cc(C(C)C)c(O)cc6O)cc5)cc4)CC3)nc3c2CCN(c2cc(O)cc4ccccc24)C3)CC1 [Compound 16, 4-(4-(((4-((1-(3-((4-(4-acryloylpiperazin-1-yl)-7-(3-hydroxynaphthalen-1-yl)-5,6,7,8-tetrahydropyrido[3,4-d]pyrimidin-2-yl)amino)propanoyl)piperidin-4-yl)methyl)benzyl)(methyl)amino)methyl)phenyl)-5-(2,4-dihydroxy-5-isopropylphenyl)-N-(2,2,2-trifluoroethyl)-4H-1,2,4-triazole-3-carboxamide, trifluoroacetic acid] | > 1 µM | < 0.1 µM | 0.1 to 1 µM | > 1 µM | 0.1 to 1 µM | < 33% | < 33% | < 33% | < 33% | < 33% | < 33% | < 33%
C=CC(=O)N1CCN(c2nc(NCCC(=O)NCCc3ccc(CN4CCC(Cc5ccc(-n6c(C(=O)NCC(F)(F)F)nnc6-c6cc(C(C)C)c(O)cc6O)cc5)CC4)cc3)nc3c2CCN(c2cc(O)cc4ccccc24)C3)CC1 [Compound 24, 4-(4-((1-(4-(2-(3-((4-(4-acryloylpiperazin-1-yl)-7-(3-hydroxynaphthalen-1-yl)-5,6,7,8-tetrahydropyrido[3,4-d]pyrimidin-2-yl)amino)propanamido)ethyl)benzyl)piperidin-4-yl)methyl)phenyl)-5-(2,4-dihydroxy-5-isopropylphenyl)-N-(2,2,2-trifluoroethyl)-4H-1,2,4-triazole-3-carboxamide, trifluoroacetic acid] | 0.1 to 1 µM | 0.1 to 1 µM | > 1 µM | > 1 µM | 0.1 to 1 µM |  |  |  |  |  |  | 
CC(=O)N1CCN(c2nc(NCCC(=O)NCc3ccc(CN4CCC(Cc5ccc(-n6c(C(=O)NCC(F)(F)F)nnc6-c6cc(C(C)C)c(O)cc6O)cc5)CC4)cc3)nc3c2CCN(c2cc(O)cc4ccccc24)C3)CC1 [Compound 54, 4-(4-((1-(4-((3-((4-(4-acetylpiperazin-1-yl)-7-(3-hydroxynaphthalen-1-yl)-5,6,7,8-tetrahydropyrido[3,4-d]pyrimidin-2-yl)amino)propanamido)methyl)benzyl)piperidin-4-yl)methyl)phenyl)-5-(2,4-dihydroxy-5-isopropylphenyl)-N-(2,2,2-trifluoroethyl)-4H-1,2,4-triazole-3-carboxamide, trifluoroacetic acid] | 0.1 to 1 µM | < 0.1 µM | 0.1 to 1 µM | > 1 µM | 0.1 to 1 µM |  |  |  |  |  |  | 
C=CC(=O)N1CCN(c2nc(NCCC(=O)N3CCC(CN4CCN(Cc5ccc(-n6c(C(=O)NCC(F)(F)F)nnc6-c6cc(CC)c(O)cc6O)cc5)CC4)CC3)nc3c2CCN(c2cccc4ccccc24)C3)C[C@H]1CC#N [Compound 76, (R)-4-(4-((4-((1-(3-((4-(4-acryloyl-3-(cyanomethyl)piperazin-1-yl)-7-(naphthalen-1-yl)-5,6,7,8-tetrahydropyrido[3,4-d]pyrimidin-2-yl)amino)propanoyl)piperidin-4-yl)methyl)piperazin-1-yl)methyl)phenyl)-5-(5-ethyl-2,4-dihydroxyphenyl)-N-(2,2,2-trifluoroethyl)-4H-1,2,4-triazole-3-carboxamide, trifluoroacetic acid] | 0.1 to 1 µM |  | 0.1 to 1 µM | > 1 µM | 0.1 to 1 µM |  |  |  |  |  |  | 
C=CC(=O)N1CCN(c2nc(NCCC(=O)N3CCC(CN4CCN(Cc5ccc(-n6c(C(=O)NCC(F)(F)F)nnc6-c6cc(C)c(O)cc6O)cc5)CC4)CC3)nc3c2CCN(c2cccc4cccc(Cl)c24)C3)C[C@H]1CC#N [Compound 79, (R)-4-(4-((4-((1-(3-((4-(4-acryloyl-3-(cyanomethyl)piperazin-1-yl)-7-(8-chloronaphthalen-1-yl)-5,6,7,8-tetrahydropyrido[3,4-d]pyrimidin-2-yl)amino)propanoyl)piperidin-4-yl)methyl)piperazin-1-yl)methyl)phenyl)-5-(2,4-dihydroxy-5-methylphenyl)-N-(2,2,2-trifluoroethyl)-4H-1,2,4-triazole-3-carboxamide, trifluoroacetic acid] | 0.1 to 1 µM |  | 0.1 to 1 µM | > 1 µM | 0.1 to 1 µM |  |  |  |  |  |  | 
C=CC(=O)N1CCN(c2nc(NCCC(=O)NCc3ccc(CN4CCC(Cc5ccc(-n6c(C(=O)NCC(F)(F)F)nnc6-c6cc(C(C)C)c(O)cc6O)cc5)CC4)cc3)nc3c2CCN(c2cccc4ccccc24)C3)C[C@H]1CC#N [Compound 95, (R)-4-(4-((1-(4-((3-((4-(4-acryloyl-3-(cyanomethyl)piperazin-1-yl)-7-(naphthalen-1-yl)-5,6,7,8-tetrahydropyrido[3,4-d]pyrimidin-2-yl)amino)propanamido)methyl)benzyl)piperidin-4-yl)methyl)phenyl)-5-(2,4-dihydroxy-5-isopropylphenyl)-N-(2,2,2-trifluoroethyl)-4H-1,2,4-triazole-3-carboxamide, trifluoroacetic acid] | 0.1 to 1 µM |  | 0.1 to 1 µM | > 1 µM | 0.1 to 1 µM |  |  |  |  |  |  | 
